Source: patent publication US11026426B2, “Oxadiazole and phenol derivatives as antibacterial and/or herbicidal agents” (NORTHERN ILLINOIS RESEARCH FOUNDATION, priority 2017, dated 2021)

Tests used:
[1] = target: T1, Mycobacterium tuberculosis IspD (MtIspD) (Mycobacterium tuberculosis, UniProt P9WKG9); test: Thermal shift assay against MtIspD; format: binding
T1 sequence (P9WKG9 1-231): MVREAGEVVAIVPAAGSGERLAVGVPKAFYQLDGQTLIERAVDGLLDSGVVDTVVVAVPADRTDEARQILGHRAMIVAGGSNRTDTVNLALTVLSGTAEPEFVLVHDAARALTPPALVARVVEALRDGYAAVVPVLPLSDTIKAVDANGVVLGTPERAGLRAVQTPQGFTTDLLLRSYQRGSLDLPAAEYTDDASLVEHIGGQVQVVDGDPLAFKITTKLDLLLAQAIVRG

[2] = target: Lycopersicon esculentum IspE (LeIspE) (Solanum lycopersicum, UniProt P93841); test: Thermal shift assay against LeIspE; format: binding
Lycopersicon esculentum IspE (LeIspE), sequence (P93841 89-401): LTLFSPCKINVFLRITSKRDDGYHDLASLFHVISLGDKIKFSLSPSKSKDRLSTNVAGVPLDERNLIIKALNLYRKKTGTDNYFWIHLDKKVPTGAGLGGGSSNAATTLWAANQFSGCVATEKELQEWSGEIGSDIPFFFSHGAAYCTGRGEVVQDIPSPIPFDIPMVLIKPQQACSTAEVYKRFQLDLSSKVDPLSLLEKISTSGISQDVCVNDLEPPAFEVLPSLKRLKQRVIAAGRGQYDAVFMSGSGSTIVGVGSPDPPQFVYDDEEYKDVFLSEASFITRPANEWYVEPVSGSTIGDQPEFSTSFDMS

[3] = target: Mycobacterium paratuberculosis IspD (MpIspD) (Mycolicibacterium paratuberculosis, UniProt Q743W5); test: Thermal shift assay against MpIspD; format: binding
Mycobacterium paratuberculosis IspD (MpIspD), sequence (Q743W5 whole entry): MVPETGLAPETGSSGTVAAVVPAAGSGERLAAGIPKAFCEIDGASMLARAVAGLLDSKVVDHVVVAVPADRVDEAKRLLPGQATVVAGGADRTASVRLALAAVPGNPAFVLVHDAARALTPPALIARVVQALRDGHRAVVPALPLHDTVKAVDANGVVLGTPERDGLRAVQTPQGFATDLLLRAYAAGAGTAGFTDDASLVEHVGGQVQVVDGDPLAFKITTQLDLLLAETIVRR

lettuce seeds = test: Lettuce leaf assay; format: in vivo; set-up: key: 0 (no effect); 5(complete inhibition or bleaching); conditions: ranking 0-5
Procedure, shortened: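 Qualitative assay: compounds in volatile organic solvent applied to filter paper in a petri dish, solvent evaporated, lettuce seeds and 5 mL water added to give test concentrations. Germination, root development and leaf bleaching scored days 3 and 4, ranked 0 (no effect) to 5 (complete inhibition or bleaching).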

AtIspD = AtIspD (Arabidopsis thaliana, UniProt P69834); test: University of Hamburg photometric enzymatic inhibition assay AtIspD; format: biochemical; conditions: read-out: AtIspD IC50
AtIspD, sequence (P69834 62-302): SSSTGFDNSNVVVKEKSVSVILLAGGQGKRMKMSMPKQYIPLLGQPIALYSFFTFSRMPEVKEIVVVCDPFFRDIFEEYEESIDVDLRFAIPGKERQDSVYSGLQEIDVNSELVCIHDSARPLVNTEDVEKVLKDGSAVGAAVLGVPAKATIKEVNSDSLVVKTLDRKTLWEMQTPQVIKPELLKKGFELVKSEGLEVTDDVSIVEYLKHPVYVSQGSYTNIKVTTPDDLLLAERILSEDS
Procedure, shortened: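 Coupled photometric assay: 2.4 mU AtIspD with 1 mM (2R,3S)-2,3-dihydroxy-4-oxopentyl phosphate, 2.1 mM CTP, excess IspE (0.4 U), ATP, pyruvate kinase/lactate dehydrogenase and 460 μM NADH. Run in 100 mM Tris-HCl pH 8.0, 10 mM MgCl2, 1 mM DTT, 1.1% DMSO at 27 °C, monitored photometrically.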

LeIspE = LeIspE (Solanum lycopersicum, UniProt P93841); test: University of Hamburg photometric enzymatic inhibition assay LeIspE; format: biochemical, Lycopersicon esculentum; conditions: read-out: LeIspE IC50
LeIspE, sequence (P93841 89-401): as the sequence (P93841 89-401) above
Procedure, shortened: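 Photometric coupled assay with pyruvate kinase/lactate dehydrogenase following NADH (460 μM). Mix: 100 mM Tris-HCl pH 8.0, 10 mM MgCl2, 1 mM DTT, 2.5 mM phosphoenolpyruvate, 2 mM ATP, 1 mM 4-diphosphocytidyl-2-C-methylerythritol, 1.1% DMSO, 2.4 mU IspE; incubated at 27° C.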

AtIspF = AtIspF (Arabidopsis thaliana, UniProt Q9CAK8); test: University of Hamburg photometric enzymatic inhibition assay AtIspF; format: biochemical; conditions: read-out: AtIspF IC50
AtIspF, sequence (Q9CAK8 53-231): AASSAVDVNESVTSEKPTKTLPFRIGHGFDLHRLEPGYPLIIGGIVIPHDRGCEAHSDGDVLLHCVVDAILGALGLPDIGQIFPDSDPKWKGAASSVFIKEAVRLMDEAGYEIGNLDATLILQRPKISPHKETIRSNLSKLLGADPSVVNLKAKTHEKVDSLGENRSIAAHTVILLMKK
Procedure, shortened: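 Coupled photometric assay (CMP kinase/pyruvate kinase/lactate dehydrogenase, NADH consumption) with 2.4 mU AtIspF and 1 mM 4-diphosphocytidyl-2C-methylerythritol 2-phosphate, 2 mM ATP, in 100 mM Tris-HCl pH 8.0, 10 mM MgCl2, 1.1% DMSO. Monitored at 27 °C.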

[4] = tested on: Burkholderia thailandensis; format: cell-based; conditions: preliminary screening, score 0-3
Mycobacterium smegmatis = test: Antibacterial preliminary screening MS; format: cell-based; conditions: score 0-3; also: key: 0 represents no inhibition; 3 is comparable to commercial antibiotic control
Corynebacterium xerosis = test: Antibacterial preliminary screening CX; format: cell-based; conditions: score 0-3; also: key: 0 represents no inhibition; 3 is comparable to commercial antibiotic control
[5] = tested on: Corynebacterium pseudodiphtheriae; test: Antibacterial preliminary screening CP; format: cell-based; conditions: score 0-3;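 also: 0 is no inhibition and 3 matches the commercial antibiotic control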
Escherichia coli = test: Antibacterial preliminary screening EC; format: cell-based; conditions: score 0-3; also: key: 0 represents no inhibition; 3 is comparable to commercial antibiotic control
Klebsiella pneumonia = test: Antibacterial preliminary screening KP; format: cell-based; conditions: score 0-3; also: key: 0 represents no inhibition; 3 is comparable to commercial antibiotic control
Micrococcus luteus = test: Antibacterial preliminary screening ML; format: cell-based; conditions: score 0-3; also: key: 0 represents no inhibition; 3 is comparable to commercial antibiotic control
Bacillus cereus = test: Antibacterial preliminary screening BC; format: cell-based; conditions: score 0-3; also: key: 0 represents no inhibition; 3 is comparable to commercial antibiotic control
Pseudomonas aeruginosa = test: Antibacterial preliminary screening PA; format: cell-based; conditions: score 0-3; also: key: 0 represents no inhibition; 3 is comparable to commercial antibiotic control
[6] = target: IspD of Mycobacterium paratuburculosis (Mycolicibacterium paratuberculosis, UniProt Q743W5); test: STD-NMR fragment screening MpIspD; format: binding; conditions: Fragments of Life library screening
IspD of Mycobacterium paratuburculosis, sequence (Q743W5 whole entry, the tested form may be a part): as the sequence (Q743W5 whole entry) above

[7] = tested on: IspE of Mycobacterium abscessus; test: STD-NMR fragment screening MaIspE; format: binding; conditions: Fragments of Life library screening

c1ccc2[nH]c(-c3nnco3)cc2c1 [HGN-207, 2-(1H-indol-2-yl)-1,3,4-oxadiazole]
MtIspD melting point change [1]: 1.5 °C | MtIspD melting temp [1]: 49.5 °C | LeIspE melting point change [2]: −1.25 °C | LeIspE melting temp [2]: 48.25 °C | MpIspD thermal shift (positive shift) [3]: 0.8 °C | Bleaching (lettuce seeds; 0.5 mM): 2 | Germination (lettuce seeds; 0.5 mM): 2 | Root Dev. (lettuce seeds; 0.5 mM): 0 | Bleaching (lettuce seeds; 1.0 mM): 3 | Germination (lettuce seeds; 1.0 mM): 2 | Root Dev. (lettuce seeds; 1.0 mM): 0 | IC50 (AtIspD): > 1000 µM | IC50 (LeIspE): > 1000 µM | IC50 (AtIspF): > 1000 µM | BT score [4]: 0 | MS score (Mycobacterium smegmatis): 0 | CX score (Corynebacterium xerosis): 0 | CP score [5]: 0 | EC score (Escherichia coli): 0 | KP score (Klebsiella pneumonia): 0 | ML score (Micrococcus luteus): 0 | BC score (Bacillus cereus): 0 | PA score (Pseudomonas aeruginosa): 0 | STD-NMR binding to MpIspD [6]: bound | STD-NMR binding to MaIspE [7]: bound | melting point: 205 to 207 °C
